The values below come from US5256658A, “Angiotensin II inhibitors” (Ortho Pharmaceutical Corporation, priority 1993, dated 1993).

The subject of test [1] is angiotensin II receptor. Briefly: Screening Potential Angiotensin II Receptor Antagonists in Salt-Depleted Normotensive Rats. In kind it is in vivo, rat (Sprague-Dawley). How it is done: 2. Test Procedure for Screening Potential Angiotensin II Receptor Antagonists in Salt-Depleted Normotensive Rats
Purpose: This test is designed to detect hypotensive effects of a compound after oral dosing in normotensive animals made renin-dependent by salt depletion.
Method: Male 350-450 g Sprague-Dawley rats are implanted with teflon microcannulae via the middle caudal artery under 20 mg/kg intravenous Brevital® anesthesia and permitted a 4-7 day surgical recovery period. Throughout recovery and testing animals are individually housed unrestrained in standard rat metabolism cages and receive continuous 0.5 ml/h intra-arterial 0.25N saline infusion through a spring-shielded swivelling tether connected to an infusion/blood pressure recording system to maintain arterial cannula patency. Animals are maintained on Low Sodium (0.03%) Purina Rat Chow #5881 throughout the study. After the recovery period animals are given oral 50 mg/kg furosemide (Lasix, Hoechst-Roussel Pharmaceutical) doses on two consecutive days to produce marked diuresis and plasma volume depletion that makes maintenance of normal blood pressure highly dependent on function of the renin-angiotensin-aldosteronesystem. Three hours after the second furosemide dose, rats are given test compound uniformly suspended in 1% methylcellulose (n=3/dose level) or 1 mL 1% methylcellulose vehicle (n=3) orally by gavage and blood pressure is continuously recorded for 24 h using a Buxco computerized data recording system. Compound-induced changes in blood pressure are compared to concurrent vehicle control blood pressures in order to detect drug effect.
Interpretation: Prior to salt depletion, normotensive rats typically show a plasma renin activity (PRA, ng angiotensin I/mL plasma/h, RIA) of 0.7. After the salt-depletion protocol PRA values taken 3 h after the furosemide dose have risen to about 7.4.
Compounds that decrease blood pressure 10 or more mmHg (MAP) compared to concurrent control after oral dosing are considered active in this test. Maximum possible response is about -35 mmHg. […]

Test [2] addresses T1, angiotensin II receptor (Oryctolagus cuniculus, UniProt P34976).
T1 sequence (P34976 1-359): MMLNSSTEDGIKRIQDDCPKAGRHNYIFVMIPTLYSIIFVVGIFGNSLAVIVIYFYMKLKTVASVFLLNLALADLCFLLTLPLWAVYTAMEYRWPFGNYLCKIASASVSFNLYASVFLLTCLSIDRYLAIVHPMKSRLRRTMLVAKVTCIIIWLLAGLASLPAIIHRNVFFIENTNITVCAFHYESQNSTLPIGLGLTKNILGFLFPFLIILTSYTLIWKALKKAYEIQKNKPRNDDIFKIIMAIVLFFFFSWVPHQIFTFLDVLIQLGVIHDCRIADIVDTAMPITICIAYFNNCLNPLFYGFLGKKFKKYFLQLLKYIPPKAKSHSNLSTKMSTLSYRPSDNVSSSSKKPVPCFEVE
Description: Inhibition of Angiotensin II Dose-Response in Rabbit Thoracic Aorta:
Purpose: To identify competitive receptor antagonists of an angiotensin II-1 activity, i.e., angiotensin II-induced vasoconstriction in in vitro aortic rings.
Procedure: 1.8 to 2.3 kg New Zealand white rabbits are sacrificed with an intravenous sodium pentobarbital overdose and the thoracic aorta gently dissected free from the aortic root to the level of the diaphragm, into ice cold Krebs bicarbonate buffer. The aorta is gently freed of clots and adventitia and cleanly cut with a scalpel into 5 mm segments. Each ring is suspended from a Gould isotonic force transducer in a tissue bath containing 15 mL oxygenated Krebs bicarbonate buffer regulated at 37° C. Initial tension is adjusted to 4.0 g and equilibrated over three 20-min wash periods to achieve a baseline tension of 3.0 g. Graded angiotensin II doses are given cumulatively to achieve a maximal contraction. Three 20-min washes are performed to remove the initial angiotensin II effect. […]
Analysis: Angiotensin II vasoconstrictor tension in grams is expressed as a percent of maximal contraction for the before and after test compound angiotensin II dose-responses. Angiotensin II ED50 and ED90 values are determined from the angiotensin II dose-response curves generated before and after test compound. […]

Test [3] has as its system angiotensin II receptor. Briefly: Oral activity in the spontaneously hypertensive rat, as determined in test procedure 2. In kind it is in vivo.

Molecules are shown by their SMILES.

`CCCCc1nc(Cl)c(CO)n1Cc1ccc(-c2ccccc2-c2nn[nH]n2)cc1` [DuP-753]: the blood pressure response result in test [1] (normotensive rats that have not been salt-depleted) was “does not change”. The “plasma renin activity (PRA)” value in test [1] (salt-depleted rats after DuP-753 treatment, RIA) was “about 41.4 ng angiotensin I/mL plasma/h”. Further, the “blood pressure decrease (mean arterial pressure, MAP)” value in test [1] (salt-depleted rats, typical response) was “about 35 mmHg”.
`C[C@@H]1CN(Cc2ccc(-c3ccccc3-c3nn[nH]n3)cc2)C[C@H](C)O1` [cis-2,6-Dimethyl-4-[4-(2'-tetrazolophenyl)phenylmethyl]morpholine] had a Kb in test [2] of 123 nM. In addition, in test [3], the “maximum mean arterial pressure drop” value is recorded as 31 mm Hg and the oral activity entry is “good oral activity”. The molecule also came in with a duration in test [3] (duration of blood pressure effect) of 12 h.
